Experimental data reported in US6677277B1, “Substituted sulphonyl amino(thio)carbonyl compounds and their use as herbicides” (Bayer Aktiengesellschaft, priority 1996, dated 2004).

Experiments:
weeds [1] = experiment: Post-emergence test; assay type: in vivo; details: cf. Tables B-1 to B-4
Experimental: (§1) Post-emergence Test Solvent: 5 parts by weight of acetone Emulsifier: 1 part by weight of alkylaryl polyglycol ether To produce a suitable preparation of active compound, 1 part by weight of active compound is mixed with the stated amount of solvent, the stated amount of emulsifier is added and the concentrate is diluted with water to the desired concentration. Test plants which have a height of 5-15 cm are sprayed with the preparation of the active compound in such a way as to apply the particular amounts of active compound desired per unit area. The concentration of the spray liquor is chosen so that the particular amounts of active compound desired are applied in 1000 l of water/ha. After three weeks, the degree of damage to the plants is rated in % damage in comparison to the development of the untreated control. The figures denote: [table]

Solanum [2] = experiment: Post-emergence test/greenhouse; assay type: in vivo; details: for % damage, Solanum: post-emergence, after three weeks
Experimental: as §1

Xanthium = experiment: Post-emergence test/greenhouse; assay type: in vivo; details: for % damage, Xanthium: post-emergence, after three weeks
Experimental: as §1

Matricaria [3] = experiment: Post-emergence test/greenhouse; assay type: in vivo; details: after three weeks
Experimental: as §1

Amaranthus [4] = experiment: Post-emergence test/greenhouse; assay type: in vivo; details: for % damage, Amaranthus: post-emergence, after three weeks
Experimental: as §1

Wheat [5] = experiment: Post-emergence test/greenhouse; assay type: in vivo; details: after three weeks
Experimental: as §1

weeds [6] = experiment: Pre-emergence test; assay type: in vivo; details: cf. Tables A-1 to A-5
Experimental: (§2) Pre-emergence Test Solvent: 5 parts by weight of acetone Emulsifier: 1 part by weight of alkylaryl polyglycol ether To produce a suitable preparation of active compound, 1 part by weight of active compound is mixed with the stated amount of solvent, the stated amount of emulsifier is added and the concentrate is diluted with water to the desired concentration. Seeds of the test plants are sown in normal soil. After about 24 hours, the soil is sprayed with the preparation of the active compound in such a way as to apply the particular amounts of active compound desired per unit area The concentration of the spray liquor is chosen so that the particular amounts of active compound desired are applied in 1000 l of water/ha. After three weeks, the degree of damage to the plants is rated in % damage in comparison to the development of the untreated control. The figures denote: [table]

Sorghum [7] = experiment: Post-emergence test/greenhouse; assay type: in vivo; details: Table B-4, post-emergence, 60 g ai./ha, rated after three weeks vs untreated control
Experimental: as §1

Solanum [8] = experiment: Pre-emergence test/greenhouse; assay type: in vivo; details: 125 g ai./ha, after three weeks
Experimental: as §2

Matricaria [9] = experiment: Pre-emergence test/greenhouse; assay type: in vivo; details: 125 g ai./ha, after three weeks
Experimental: as §2

Amaranthus [10] = experiment: Pre-emergence test/greenhouse; assay type: in vivo; details: after three weeks
Experimental: as §2

Alopecurus = experiment: Pre-emergence test/greenhouse; assay type: in vivo; details: after three weeks
Experimental: as §2

Chenopodium = experiment: Pre-emergence test/greenhouse; assay type: in vivo; details: after three weeks
Experimental: as §2

Lolium = experiment: Pre-emergence test/greenhouse; assay type: in vivo; details: 125 g ai./ha, after three weeks
Experimental: as §2

Sorghum [11] = experiment: Pre-emergence test/greenhouse; assay type: in vivo; details: 125 g ai./ha, after three weeks
Experimental: as §2

Echinochloa [12] = experiment: Post-emergence test/greenhouse; assay type: in vivo; details: Table B-4, post-emergence, 60 g ai./ha, rated after three weeks vs untreated control
Experimental: as §1, with “Emulsifier:” for “Post-emergence Test Solvent: 5 parts by weight of acetone Emulsifier:”, “control.” for “control. The figures denote: [table]”

Cotton = experiment: Pre-emergence test/greenhouse; assay type: in vivo; details: after three weeks
Experimental: as §2

Bromus = experiment: Pre-emergence test/greenhouse; assay type: in vivo; details: after three weeks
Experimental: as §2

Wheat [13] = experiment: Pre-emergence test/greenhouse; assay type: in vivo; details: after three weeks
Experimental: as §2

Echinochloa [14] = experiment: Pre-emergence test/greenhouse; assay type: in vivo; details: after three weeks
Experimental: as §2

Veronica = experiment: Pre-emergence test/greenhouse; assay type: in vivo; details: after three weeks
Experimental: as §2

[15] = log P n-octanol/water by the HPLC method; assay type: physicochemical; details: at pH 2, eluent acetonitrile containing 1% of H3PO4
[16] = Table B-4, post-emergence, 60 g ai./ha, rated after three weeks vs untreated control

CCSc1cccc(C)c1S(=O)(=O)NC(=O)n1nc(CC)n(C)c1=O [Example 55]
activity against weeds (weeds [1]): very strong activity
% damage, Solanum (Solanum [2]; 60 g ai./ha): 90%
% damage, Xanthium (Xanthium; 60 g ai./ha): 100%
% damage, Matricaria (Matricaria [3]; 60 g ai./ha): 95%
% damage, Amaranthus (Amaranthus [4]; 60 g ai./ha): 95%
% damage, Wheat (Wheat [5]; 60 g ai./ha): 20%

CCOc1nn(C(=O)NS(=O)(=O)c2c(C)cccc2SCC)c(=O)n1C [Example 56]
activity against weeds (weeds [1]): very strong activity
% damage, Solanum (Solanum [2]; 125 g ai./ha): 100%
% damage, Xanthium (Xanthium; 125 g ai./ha): 100%
% damage, Matricaria (Matricaria [3]; 125 g ai./ha): 100%
% damage, Amaranthus (Amaranthus [4]; 125 g ai./ha): 100%
% damage, Wheat (Wheat [5]; 125 g ai./ha): 10%

CCOc1nn(C(=O)NS(=O)(=O)c2c(OC)cccc2SCCF)c(=O)n1C [Example 59]
activity against weeds (weeds [1]): very strong activity
activity against weeds (weeds [6]): very strong activity
Solanum, % damage (Solanum [2]; [16]): 90%
Xanthium, % damage (Xanthium; [16]): 95%
Amaranthus, % damage (Amaranthus [4]; [16]): 100%
Sorghum, % damage (Sorghum [7]): 100%
% damage, Solanum (Solanum [8]): 100%
% damage, Matricaria (Matricaria [9]): 100%
% damage, Amaranthus (Amaranthus [10]; 125 g ai./ha): 100%
% damage, Alopecurus (Alopecurus; 125 g ai./ha): 100%
% damage, Chenopodium (Chenopodium; 125 g ai./ha): 100%
% damage, Lolium (Lolium): 100%
% damage, Sorghum (Sorghum [11]): 100%
Echinochloa, % damage (Echinochloa [12]): 100%

CCOc1nn(C(=O)NS(=O)(=O)c2c(SC(C)(C)C)cccc2C(F)(F)F)c(=O)n1C [Example 60]
activity against weeds (weeds [6]): very strong activity
% damage, Amaranthus (Amaranthus [10]; 125 g ai./ha): 100%
% damage, Cotton (Cotton; 125 g ai./ha): 20%
% damage, Bromus (Bromus; 125 g ai./ha): 95%
% damage, Wheat (Wheat [13]; 125 g ai./ha): 0%
% damage, Echinochloa (Echinochloa [14]; 125 g ai./ha): 100%
% damage, Alopecurus (Alopecurus; 125 g ai./ha): 90%
% damage, Chenopodium (Chenopodium; 125 g ai./ha): 100%
% damage, Veronica (Veronica; 125 g ai./ha): 100%

COc1nn(C(=O)NS(=O)(=O)c2c(SC)cccc2C(F)(F)F)c(=O)n1C [Example 61]
activity against weeds (weeds [6]): very strong activity
% damage, Amaranthus (Amaranthus [10]; 60 g ai./ha): 100%
% damage, Cotton (Cotton; 60 g ai./ha): 0%
% damage, Bromus (Bromus; 60 g ai./ha): 100%
% damage, Wheat (Wheat [13]; 60 g ai./ha): 30%
% damage, Echinochloa (Echinochloa [14]; 60 g ai./ha): 100%
% damage, Alopecurus (Alopecurus; 60 g ai./ha): 95%
% damage, Chenopodium (Chenopodium; 60 g ai./ha): 100%
% damage, Veronica (Veronica; 60 g ai./ha): 80%

COc1nn(C(=O)NS(=O)(=O)c2c(SCC(F)F)cccc2C(F)(F)F)c(=O)n1C [Example 99]
log P [15]: (log P = 2.59)

COc1nn(C(=O)NS(=O)(=O)c2c(SCC(F)F)cccc2C(F)(F)F)c(=O)n1C1CC1 [Example 100]
log P [15]: (log P = 2.96)

CSc1nn(C(=O)NS(=O)(=O)c2c(C)cccc2SCC(F)F)c(=O)n1C [Example 101]
log P [15]: (log P = 2.73)
